Laboratory results: patent US20220280530A1, “PREVENTION OR TREATMENT OF DISEASES AND DISORDERS ASSOCIATED WITH TISSUE DAMAGE” (priority 2019, published 2022)
Like-named read-outs stand apart in the source and are kept apart here.

What was measured:
MST1 = MST1 (Homo sapiens, UniProt Q13043); test: MST1 protein kinase inhibition (Table 5); assay type: biochemical
MST2 = biological target: T1, MST2 (Homo sapiens, UniProt Q13188); test: MST2 protein kinase inhibition (Table 5); assay type: biochemical
T1 sequence (Q13188 1-491): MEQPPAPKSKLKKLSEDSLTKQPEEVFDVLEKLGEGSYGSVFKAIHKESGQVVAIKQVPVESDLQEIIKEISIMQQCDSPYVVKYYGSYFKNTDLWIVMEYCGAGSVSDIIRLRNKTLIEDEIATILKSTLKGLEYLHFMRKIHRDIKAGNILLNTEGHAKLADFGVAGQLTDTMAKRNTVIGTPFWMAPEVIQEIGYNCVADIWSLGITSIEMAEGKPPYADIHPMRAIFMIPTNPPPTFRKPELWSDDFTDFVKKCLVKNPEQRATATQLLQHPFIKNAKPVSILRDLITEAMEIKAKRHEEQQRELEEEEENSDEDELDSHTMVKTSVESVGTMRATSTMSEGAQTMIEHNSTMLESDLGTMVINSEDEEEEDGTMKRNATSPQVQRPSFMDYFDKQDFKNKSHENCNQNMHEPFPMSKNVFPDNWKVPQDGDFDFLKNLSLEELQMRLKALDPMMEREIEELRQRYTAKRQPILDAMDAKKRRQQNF

ICAM-1 = ICAM-1 expression in stimulated HUVECs (western blot); assay type: cell-based, human; conditions: 1 μM, 1 hour pretreatment, TNF-α (20 ng/mL) and IL-1β (10 ng/mL) 12 hours; FIG. 15A
[1] = system: C57B1/6 mice, MCAO-induced cerebral ischemia; test: Mouse cerebral ischemia model by transient middle cerebral artery occlusion (MCAO); assay type: in vivo
Description: To verify the protective effect of the inhibitors of MST1/2 protein kinases on the brain injury after ischemic stroke, X1 was administered to mouse cerebral ischemia model induced by transient middle cerebral artery occlusion (MCAO). Briefly, 8-12 week-old C57B1/6 mice (both male and female mice) were intraperitoneal injection with vehicle (DMSO) or 2 mg/kg X1 twice at 24 hours and 3 hours prior to MCAO procedure respectively. Mice were then anesthetized with 2.0% isoflurane, with their body temperature maintained at 37° C. with a heating pad. Following a midline cervical skin incision, the proximal right common carotid artery and the right external carotid artery were ligated. […]
Real-time cerebral blood flow was monitored using a laser speckle contrast imager (PeriCam PSI HR System, Perimed, Sweden) to confirm occlusion of the MCAO and reperfusion after removal of the filament. […] Brain sections were stained with 2% 2,3,5-Triphenyltetrazolium chloride (T8877; Sigma-Aldrich, St. Louis, Mo.) and scanned (HP Scanjet G4010) to allow quantification of infarcted and uninjured brain tissue. […]
In addition, neurological function of the MCAO-induced cerebral ischemia model mice was evaluated after treatment with the MST1/2 protein kinases inhibitor X1. […]

[2] = system: THP-1 cells / TNFα-activated ECs; test: Adhesion of THP-1 cells to TNFα-activated endothelial cells; assay type: cell-based, human; conditions: FIGS. 19A-19B, 20A-20B
Description: To substantiate the functional significance of inhibitors of MST1/2 protein kinases in activating endothelial cells, the monocyte adhesion to the activated endothelial cells was further examined.
Cell adhesion was assessed as the follows: THP1 cells were labeled with calcein-AM (Invitrogen) according to the instructions of the manufacturer. After the HUVECs were stimulated and washed, 2.5×10^5 calcein-labeled THP1 cells were added to each well and allowed to interact with MST1/2 inhibitors for 60 minutes at […]. Unbound cells were removed by gently washing with complete medium, and the number of attached cells was counted on an inverted fluorescent microscope.

[3] = system: inflammatory cytokines in the mouse lung; test: Murine septic model (LPS): inflammatory cytokine mRNA in mouse lung (real-time PCR); assay type: in vivo, mice; conditions: LPS 2.5 mg/kg i.p.; pretreated twice at 24 hrs and 3 hrs prior; 6 hrs after LPS; FIGS. 21A-21D
Description: In this regard, the mice were pretreated with X1 twice at 24 hrs and 3 hrs, respectively, prior to the injection of lipopolysaccharides (LPS). 6 hrs after injection of LPS to induce the sepsis model, the expression of inflammatory cytokines in the mouse lung was determined by real-time PCR.

mice treated with DOX = test: In vivo cardio protection: heart function and atrophy induced by DOX in mice; conditions: by week four, inhibitors daily i.p., FIG. 11
Description: In vivo cardio protection in mice by the inhibitors of MST1/2 protein kinases was verified by measuring heart function and atrophy induced by DOX (FIG. 8). Two inhibitors X1 (drug 1) and Y1 (drug 2) were administered to the mice daily by i.p. during the entire study period. After administration of the inhibitors for six days, DOX was administered every two days by i.p. for four times. Blood samples were collected periodically from the mice by […]. EdU was administered to the mice during the final four days of the study (FIG. 8).
Further, the mice were disected at the death or at the end of the study and the weight of the hearts was measured.
The heart function measured as EF % (ejection fraction) was impaired by DOX over the four-week study period.

[4] = system: inflammatory cytokines in HUVEC, such as MCP-1 and IL-6; test: mRNA levels of inflammatory cytokines in HUVEC after TNFα stimulation (qPCR); assay type: cell-based, human; conditions: in response to TNFα stimulation, FIGS. 17A-17D, 18A-18D
VCAM-1 = VCAM-1 expression in stimulated HUVECs (western blot); assay type: cell-based, human; conditions: for IC50: Homo sapiens, HUVEC, read-out: IC50 of inhibition of VCAM-1 expression

MST1, sequence (Q13043 whole entry, looked up): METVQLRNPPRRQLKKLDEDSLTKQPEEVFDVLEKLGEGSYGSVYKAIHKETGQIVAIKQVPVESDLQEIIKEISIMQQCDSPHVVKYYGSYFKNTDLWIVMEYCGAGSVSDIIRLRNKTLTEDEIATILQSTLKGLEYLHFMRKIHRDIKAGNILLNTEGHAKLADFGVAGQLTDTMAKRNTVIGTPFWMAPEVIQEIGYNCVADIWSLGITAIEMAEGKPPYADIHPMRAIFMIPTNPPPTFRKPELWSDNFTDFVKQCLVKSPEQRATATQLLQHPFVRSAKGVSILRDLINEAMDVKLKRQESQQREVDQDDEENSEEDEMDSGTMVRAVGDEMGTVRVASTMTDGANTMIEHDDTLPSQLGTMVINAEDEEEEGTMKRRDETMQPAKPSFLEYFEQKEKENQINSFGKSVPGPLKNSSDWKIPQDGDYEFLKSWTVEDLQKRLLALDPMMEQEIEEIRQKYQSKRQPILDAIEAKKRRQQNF

Structure (SMILES)	IC50 (MST1) [µM]	IC50 (MST2) [µM]	other results
CN1c2ccccc2C(=O)Nc2cnc(Nc3ccc(NS(C)(=O)=O)cc3)nc21 [IA-6]	> 30	> 30	
NS(=O)(=O)c1ccc(Nc2ncc3c(n2)N(C2CCCC2)c2ccccc2C(=O)N3)cc1 [IB-1]	> 30	> 30	
CN1C(=O)c2ccccc2N(C)c2nc(Nc3cccc(S(N)(=O)=O)c3)ncc21 [IC-4]	> 30	> 30	
CCN1CCN(Cc2ccc(Nc3ncc4c(n3)N(C)c3ccccc3C(=O)N4C)cc2C(F)(F)F)CC1 [IC-5]		1.8	IC50 (MST1; read-out: MST1 IC50): 1.91 µM
CCN1c2ccccc2C(=O)N(C)c2cnc(Nc3ccc(S(N)(=O)=O)cc3)nc21 [ID-1]		0.11	IC50 (MST1; read-out: MST1 IC50): 0.04 µM
CCN1c2ccccc2C(=O)N(C)c2cnc(Nc3cccc(S(N)(=O)=O)c3)nc21 [ID-3]		> 30	
CC(C)N1c2ccccc2C(=O)N(C)c2cnc(Nc3ccc(S(N)(=O)=O)cc3)nc21 [IE-1]		2.45	IC50 (MST1; read-out: MST1 IC50): 0.83 µM
CC(C)N1c2ccccc2C(=O)N(C)c2cnc(Nc3cccc(S(N)(=O)=O)c3)nc21 [IE-2]		> 30	
CN1CCN(S(=O)(=O)c2ccc(Nc3ncc4c(n3)N(C3CCCC3)c3ccccc3C(=O)N4C)cc2)CC1 [IF-4]		> 30	
CN1C(=O)c2ccccc2N(C2CCCC2)c2nc(Nc3cccc(S(N)(=O)=O)c3)ncc21 [IF-5]	> 30	> 30	
CCN1CCN(Cc2ccc(Nc3ncc4c(n3)N(C3CCCC3)c3ccccc3C(=O)N4C)cc2C(F)(F)F)CC1 [IF-6]		> 30	
CN1C(=O)c2ccccc2Nc2nc(Nc3cccc(S(N)(=O)=O)c3)ncc21 [IG-3]	> 30	> 30	
Cc1ccc2c(c1)C(=O)N(C)c1cnc(Nc3ccc(S(C)(=O)=O)cc3)nc1N2C [IH-3]	> 30	> 30	
Cc1ccc2c(c1)C(=O)N(C)c1cnc(Nc3ccc(S(N)(=O)=O)cc3)nc1N2C [IH-6]	> 30	> 30	
[2H]c1ccc2c(c1)N(C)c1nc(Nc3ccc(S(N)(=O)=O)cc3)ncc1N(C)C2=O [IH-7]	3.12		
CN1C(=O)c2cc(Cl)ccc2N(C)c2nc(Nc3ccc(S(N)(=O)=O)cc3)ncc21 [IH-10]		> 30	
CN1C(=O)c2ccc(Cl)cc2N(C)c2nc(Nc3ccc(S(C)(=O)=O)cc3)ncc21 [IH-14]	> 30		
CN1C(=O)c2sccc2N(C)c2nc(Nc3cccc(S(N)(=O)=O)c3)ncc21 [II-2]		> 30	
CN1C(=O)c2sccc2N(C)c2nc(Nc3ccc([N+](=O)[O-])cc3)ncc21 [II-11]	> 30	> 30	
CN1C(=O)c2sccc2N(C)c2nc(Nc3ccc(N)cc3)ncc21 [II-14]		2.75	IC50 (MST1; read-out: MST1 IC50): 2.16 µM
COc1cc(N2CCN(C)CC2)ccc1Nc1ncc2c(n1)N(C)c1ccsc1C(=O)N2C [II-16]	> 30	> 30	
COc1cc(N2CCC(O)CC2)ccc1Nc1ncc2c(n1)N(C)c1ccsc1C(=O)N2C [II-22]	> 30	> 30	
CN1C(=O)c2sccc2N(C)c2nc(Nc3cc[nH]n3)ncc21 [II-27]		> 30	
CN1C(=O)c2cccc3c2N(CC3)c2nc(Nc3cccc(S(N)(=O)=O)c3)ncc21 [IV-2]	> 30	> 30	
CN1C(=O)c2sccc2N(C)c2nc(Nc3ccc(S(N)(=O)=O)cc3)ncc21 [X1]			expression of ICAM-1 (ICAM-1): barely affected; infarct size ([1]; 2 mg/kg i.p. twice, 24 hours and 3 hours prior to MCAO, 60 minutes ischemia, 23 hours reperfusion, FIGS. 13, 14A): significantly attenuated; neurological function (0-4-point neurological score) ([1]; MCAO mice, in comparison with vehicle treatment, FIG. 14B): reducing the damages to neurological functions; adhesion of THP-1 cells to TNFα-activated ECs [2]: markedly inhibited; mRNA level of ICAM-1 in mouse lung [3]: markedly suppressed; mRNA level of IL-6 in mouse lung [3]: markedly suppressed; mRNA level of MCP-1 in mouse lung [3]: markedly suppressed; mRNA level of VCAM-1 in mouse lung [3]: markedly suppressed; heart function measured as EF % (ejection fraction) (mice treated with DOX): reduced the EF % decrease; mRNA levels of inflammatory cytokines in HUVEC, such as MCP-1 and IL-6 [4]: markedly inhibited; VCAM-1 expression (VCAM-1; 1 μM, 1 hour pretreatment, TNF-α (20 ng/mL) and IL-1β (10 ng/mL) 12 hours, FIG. 15A): substantially inhibited; IC50 (VCAM-1): 1.29 µM
CN1C(=O)c2ccccc2N(C)c2nc(Nc3ccc(S(N)(=O)=O)cc3)ncc21 [Y1]			adhesion of THP-1 cells to TNFα-activated ECs [2]: markedly inhibited; heart function measured as EF % (ejection fraction) (mice treated with DOX): reduced the EF % decrease; mRNA levels of inflammatory cytokines in HUVEC, such as MCP-1 and IL-6 [4]: markedly inhibited; IC50 (VCAM-1; HUVECs, FIGS. 15B, 16A-16B): 0.49 µM
